The record followed here is patent US20240287100A1, “ALKYLIDENE DERIVATIVES AS KRAS INHIBITORS” (NIKANG THERAPEUTICS, INC., priority 2021, published 2024).

What is called EC50 is the concentration needed to bring the measured effect to its halfway point. Read a low EC50 as a more potent agent.

In the experiment the target is T1, K-Ras G12D (Homo sapiens, UniProt P01116, G12D).
T1 construct: AGS (Cobioer, CBP60476) cell lines which harbor KRAS G12D mutation; host or cells: AGS
As to the kind of experiment: p-ERK Cellular 1-Plate Assay (AlphaLISA SureFire Ultra p-ERK1/2) in AGS cells. The format is cell-based. The following applies: AGS cells harboring KRAS G12D mutation, 3 h at 37° C., 5,000 cells per well. Here is the method:
p-ERK Cellular 1-Plate Assay
The ability of the compound of Formula (I) or a pharmaceutically acceptable salt thereof (test compound) to inhibit K-Ras G12D activity was tested using AGS (Cobioer, CBP60476) cell lines which harbor KRAS G12D mutation as described below.
AGS (Cobioer, CBP60476) were seeded in 384-well plates and cultured overnight (5,000 cells per well, 40 μl total volume). The following morning, cells were treated with test compound, with starting concentration at 10 μM and 3-fold dilution down to 0.5 nM for 3 h at 37° C. DMSO treatment served as control, p-ERK was then measured using AlphaLISA SureFire Ultra p-ERK1/2 (Thr202/Tyr204) Assay Kit (Perkin Elmer, cat #ALSU-PERK) following the manufacturer's instruction as follows.
Briefly, the culture medium was removed and 10 μl 1× lysis buffer was added to each well, followed by 10 minutes incubation on a plate shaker at room temperature. Acceptor mixture was prepared according to manufacturer's instruction. 5 μl acceptor mixture was added to the cell lysate and the plate was wrapped with foil, spun at 500 rpm for 10 s and incubated at RT for 60 min. Donor mixture was prepared under subdued light. 5 μl donor mixture was added to the cell lysate and the plate was spun at 500 rpm for 10s and incubated at RT for another 60 min. in the dark. Signal was then measured on a EnVision 2105 multimode plate reader. […]

T1 sequence (P01116 1-188 isoform P01116-2 G12D): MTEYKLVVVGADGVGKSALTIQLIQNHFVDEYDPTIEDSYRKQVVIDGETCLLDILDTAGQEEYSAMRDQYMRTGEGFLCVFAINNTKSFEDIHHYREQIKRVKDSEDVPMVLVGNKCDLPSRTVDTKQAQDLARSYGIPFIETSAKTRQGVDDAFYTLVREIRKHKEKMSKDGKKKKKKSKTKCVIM

`C#Cc1c(F)ccc2cccc(-c3ncc4c(N5CC6CCC(C)(C5)N6)nc(OC[C@]56CC(=C)CN5C[C@@H](F)C6)nc4c3F)c12` (stereo partly drawn) [Example 30, 7-(8-ethynyl-7-fluoronaphthalen-1-yl)-8-fluoro-2-(((2S,7aR)-2-fluoro-6-methylenetetrahydro-1H-pyrrolizin-7a(5H)-yl)methoxy)-4-(1-methyl-3,8-diazabicyclo[3.2.1]octan-3-yl)pyrido[4,3-d]pyrimidine] had an EC50 of 170 nM. For `C#Cc1c(F)ccc2cccc(-c3ncc4c(N5CC6CCC5CN6)nc(OC[C@]56CC(=C)CN5C[C@H](F)C6)nc4c3F)c12` (stereo partly drawn) [Example 31, 2-(7-(8-ethynyl-7-fluoronaphthalen-1-yl)-8-fluoro-2-(((2R,7aR)-2-fluoro-6-methylenetetrahydro-1H-pyrrolizin-7a(5H)-yl)methoxy)pyrido[4,3-d]pyrimidin-4-yl)-2,5-diazabicyclo[2.2.2]octane], the EC50 is above 100 nM.
